This note sets out measurements from ChEMBL document CHEMBL1157539, “Thousands of chemical starting points for antimalarial lead identification” (Nature, 2010).

The assay deals with Plasmodium falciparum. In words: GSK_TCMDC: Inhibition of Plasmodium falciparum 3D7 in whole erythrocytes, using parasite LDH activity as an index of growth. The settings on record: Plasmodium falciparum, 3D7. The class given is functional, organism-based.

Each structure is given as a SMILES string.

`FC(F)(F)c1cccnc1N1CCC(Nc2nc3cc(Cl)ccc3[nH]2)CC1` yielded an XC50 of 646 nM.
To `O=C(Nc1ccc(Oc2ccccc2)cc1)N[C@@H](Cc1ccc(O)cc1)C(=O)NC1CCN(Cc2ccc(O)c([N+](=O)[O-])c2)C1` (stereo partly drawn) belongs 1510 nM.
Turning to `Cc1cc(=NN=Cc2ccccc2Cl)c2cccc(C)c2[nH]1`, the XC50 worked out at 705 nM.
To `c1cncc(NCc2ccc(-c3cc4ccncc4cc3OC3CCNCC3)s2)c1` belongs 981 nM; to `Fc1ccccc1COc1ccc(Nc2ncnc3ccc(I)cc23)cc1Cl`, 930 nM; to `CN(Cc1cccc(O)c1)C1CCCN(c2cc(NC(=O)c3ccc(F)cc3)ccn2)C1` (stereo not drawn), 1070 nM.
The figure for `CCCCCC(C)C(C)c1cc(O)c2c(c1)OC(C)(C)c1cnccc1-2` (stereo not drawn) is 770 nM.
To `NC1=NC(CCc2ccccc2)N(c2ccccc2)C(N)=N1` (stereo not drawn) belongs 77.1 nM; to `COc1cc2nccc(Nc3cccc(Oc4ccccc4)c3)c2cc1OC`, 643 nM.
`FC(F)(F)c1cccc(Nc2nc3nonc3nc2NC2C3CC4CC(C3)CC2C4)c1` (stereo not drawn) came in with an XC50 of 661 nM.
To `Cc1ccc(-n2nc(-c3ccccc3)c3cc(C(=O)NCCN)sc32)cc1` belongs 1370 nM; to `CCCC(C)Nc1nc(C)cc(N[C@@H](Cc2ccccc2)C(=O)NCc2cccc(F)c2)n1` (stereo partly drawn), 882 nM.
The figure for `CC(C)N(Cc1ccc(-c2ccc(C(F)(F)F)cc2)cc1)C(=O)Cn1c(CCc2cccc(F)c2F)cc(=O)c2ccc(CCCN3CCCCC3)cc21` is 736 nM; for `c1cc(CN2CCCCC2)cc(-c2ccc(-c3nc4ccccc4[nH]3)s2)c1` it is 869 nM.
`COc1ccc2[nH]ccc(=NN=Cc3cccc(C)n3)c2c1`: the XC50 was determined as 764 nM.
The figure for `CC1(C)CCC(C)(C)c2c1ccc(C1CCN(CCCCNC(=O)c3ccc(-c4ccc(C#N)cc4)cc3)CC1)c2O` is 226 nM.
To `Cc1[nH]c(C)c(-c2ccc(OCc3cccc(C(F)(F)F)c3)nc2)c(=O)c1Br` belongs 40.3 nM; to `CC1(CCc2ccccc2)N=C(N)N=C(N)C1c1ccc(Cl)c(Cl)c1` (stereo not drawn), 316 nM; to `Oc1ccccc1CNCc1ccc(-c2cnc(N3CCCC(c4ccccc4)C3)nc2)cc1` (stereo not drawn), 689 nM.
To `CN(C)CC1CCCN1Cc1ccccc1-c1cnn(C)c(=O)c1Oc1cccc(C#N)c1` (stereo not drawn) belongs 1340 nM; to `COc1cccc(C2=CC(c3ccccc3)n3ncc(C(=O)Nc4ccc(Cl)cc4)c3N2)c1` (stereo not drawn), 1060 nM; to `COc1cc(C(=O)Nc2ccc(-c3nc4ccccc4[nH]3)cc2)cc(OC)c1OC`, 982 nM.
In the case of `Oc1cc(Nc2ccnc3cc(-c4ccc(CN5CCCCC5)o4)ccc23)c(Cl)cc1F`, the XC50 was determined as 122 nM.
The figure for `CC(C)COc1ccc(Cl)cc1Cc1ccc(-c2nc3ccc(F)c(F)c3[nH]2)o1` is 942 nM.
For the compound `Cc1cccc(CN2CCC(CNC(=O)c3cc4c(-c5ccccc5F)nn(C)c4s3)CC2)c1`, the XC50 came out at 1090 nM.
To `O=[N+]([O-])c1ccc2c(-c3ccccc3)c(-c3ccccc3)n(O)c2c1` belongs 989 nM.
The figure for `Fc1ccc2[nH]c(-c3cccc(-c4ccc(CN5CCC(CCN6CCCCC6)CC5)cc4)c3)nc2c1` is 142 nM; for `CC(C)C[C@H](NC(=O)c1cc2cc(OCCN3CCNCC3)ccc2o1)C(=O)NC1CC[C@@H](C)N(C(=O)Nc2ccc(Cl)cc2)CC1=O` (stereo partly drawn) it is 382 nM.
To `NC(=O)c1ccc(NCC(=O)Nc2cccc(-c3cccc(-c4nc5ccccc5[nH]4)c3)c2)cc1` belongs 987 nM; to `CCC(C)(C)c1ccc(Oc2ccc(NC(=O)Nc3ccc(Cl)c(Cl)c3)cc2)cc1`, 704 nM; to `FC(F)(F)c1cccc(C=NNc2nc3ccccc3[nH]2)c1`, 148 nM.
`O=C(c1c(-c2[nH]c3ccccc3c2C(=O)C(F)(F)F)[nH]c2ccccc12)C(F)(F)F` displayed an XC50 of 746 nM.
To `CCn1ccc2c(N3CCCS3(=O)=O)cc(C(=O)N[C@@H](Cc3ccccc3)[C@H](O)CNC(C)(C)CCCC(C)C)cc21` belongs 491 nM; to `Nc1ncc(Cc2cc(Cl)c(N)c3ncccc23)c(N)n1`, 1120 nM; to `CC[C@H]1CN(Cc2cccc(O)c2)CC[C@H]1CCCc1ccnc2ccc(O)cc12`, 534 nM.
`O=C(Nc1cccc2ccccc12)N1CCC(NS(=O)(=O)c2cccc(C(F)(F)F)c2)CC1` registered an XC50 of 913 nM.
The figure for `CCn1nc(C(=O)NC2CCOc3ccccc32)c2ccccc2c1=O` (stereo not drawn) is 1230 nM.
`CCN(CC)CCCC(C)Nc1c(-c2ccc(C)cc2)cnc2ccccc12` (stereo not drawn) gave an XC50 of 200 nM.
`COc1cc2nc(N3CCC(CNC(=O)c4cccc5cccnc45)CC3)nc(N)c2cc1OC`: the XC50 worked out at 1700 nM.
The figure for `O=C(/C=C/c1ccc(Cl)c(Cl)c1)NCCCCCN1CCC(CCNC(=O)C2(c3ccc(Cl)cc3)CC2)CC1` is 925 nM.
The compound `O=C(NC1CCN(c2ccnc3cc(Cl)ccc23)C1)c1cccc(F)c1` (stereo not drawn) gave an XC50 of 179 nM.
The figure for `O=C(CCc1ccccc1)NC(c1ccc(Cl)cc1)c1ccc2cccnc2c1O` (stereo not drawn) is 847 nM.
To `CN(C)CCCNCc1ccc(-c2ccc(F)c(Cl)c2)o1` belongs 802 nM; to `Cc1ccc(CC(C)NCC(O)c2cccc([N+](=O)[O-])c2)cc1` (stereo not drawn), 761 nM; to `N#Cc1ccc2c(c1)CCN(CCC1CCC(NC(=O)c3ccc(-c4ccccn4)s3)CC1)CC2` (stereo not drawn), 1010 nM.
For `CCCCCCCc1[nH]c2ccccc2c(=O)c1C`, the XC50 was found to be 509 nM.
`Cc1ccc([S+]([O-])Cc2ccc(Cl)cc2)cc1` (stereo not drawn) showed an XC50 of 196 nM.
The compound `COc1cc(NC(=O)N2CCc3cc(OC)c(OCCN4CCCCC4)cc32)cc(C(F)(F)F)c1` returned an XC50 of 1150 nM.
The figure for `CN(C)c1ccc(C2(c3ccccc3)N=C(N)N(CCCc3ccccc3)C2=O)cc1` (stereo not drawn) is 971 nM.
To `OCCCCCCNc1nc(NCc2ccccc2-c2ccc(C(F)(F)F)cc2)nc(N2CCNCC2)n1` belongs 1440 nM; to `COc1ccc2nccc([C@@H](O)CN3CCC(NCc4cc5ccccc5[nH]4)CC3)c2n1`, 628 nM.
In turn, `COc1cc(C(=O)N2C(c3nccs3)C(C(=O)N(OC)C(C)c3ccccc3)CC2(CC(C)C)C(=O)OC(C)(C)C)ccc1C(C)(C)C` (stereo not drawn) yielded an XC50 of 1070 nM.
For `COc1cc2nc(N3CCC(CNC(=O)c4ccc(-c5ccc(C(=O)N(C)C)cc5O)cc4)CC3)nc(N)c2cc1OC`, the XC50 stood at 278 nM.
To `Cc1ccccc1N1CCN(c2ccc(C(=O)Nc3ccccc3)cc2)CC1` belongs 723 nM; to `C1=CN(Cc2ccccc2)C=CC1=C1C=Nc2ccccc21`, 756 nM; to `Cc1ccc(CN2CCCCC(NC(=O)c3cc4ccccc4s3)C2)cc1` (stereo not drawn), 900 nM.
To `CC(C)CNCc1cccc(-c2cccc(CNCCCN3CCN(C)CC3)c2)c1` belongs 1180 nM.
The figure for `CCc1cccc2c(C#N)cn(CC(=O)NCCc3ccccc3)c12` is 887 nM.
With `O=C(NC1CCC(CN2CCC(c3c[nH]c4ccccc34)CC2)CC1)c1cc(-c2ccc(F)cc2F)ccc1O` (stereo not drawn), the XC50 was determined as 356 nM.
For the compound `COCCNC(=O)c1ccc(OC2CCN(CC(C)=Cc3ccccc3)CC2)c(Cl)c1`, the XC50 is 652 nM.
`O=[N+]([O-])c1ccccc1C=NN=c1cc[nH]c2ccccc12` came in with an XC50 of 863 nM.
As for `O=c1ccc2ncc(Cl)c3c2n1CC3CN1CCC(NCc2cc3c(cn2)OCCO3)CC1` (stereo not drawn), the XC50 was 961 nM.
As to `CN(Cc1ccccc1)C1CCN(c2cc(NC(=O)c3cccc(F)c3)ccn2)CC1`, the XC50 came out at 1510 nM.
